This note sets out measurements from patent US20250136570A1 (Tango Therapeutics, Inc., priority 2021, published 2025).

One assay has as its target HDAC3/NCor2 (Homo sapiens (Human), UniProt O15379). Description: HDAC3 inhibition, Fluor de Lys fluorescent enzyme assay. Type of assay: biochemical. The following applies: 3 hours pre-incubation at room temp; 1.2 nM enzyme; 16 μM Fluor de Lys substrate; duplicate. The text has this: (§1) Recombinant HDAC1 (cat #: 50051) and HDAC3/NCor2 (cat #: 50003) enzymes were purchased from BPS Bioscience (San Diego, CA, US). Assay reagents for the detection of HDAC enzyme activity (Fluor de Lys®—Green substrate and Developer kits) were purchased from Enzo Life Science (Farmingdale, NY, US). Plates used to conduct the enzyme reaction were Proxiplate-384 (cat #: 6008280) Plus from PerkinElmer (Waltham, MA, US). TSA, an HDAC inhibitor, was purchased from Enzo Life Science (cat #BML-GR309-9090) The remainder of the reagents used to prepare the assay buffer were purchased from Sigma-Aldrich (St Louis, MO, US). Unless stated otherwise, HDAC1 and 3 assays were conducted in 50 mM Tris buffer, pH 8, 137 mM NaCl, 2.7 mM KCl, 0.01% BSA.
(§2) IC50 determination for HDAC1 and HDAC3—Prior to adding reagents, 50 nL/well of compound were added to Proxiplates using an Echo dispenser instrument (Beckman Coulter, CA, US). After addition of compound, 2.5 μL/well of 2× enzyme solution was added and the enzyme was pre-incubated with compound for 3 hours at room temp. (˜22° C.). After the pre-incubation period, the enzyme reaction was initiated by adding 2.5 μL/well of 2× Fluor de Lys® substrate solution. The assay reaction was stopped after one hour by adding 5 μl/well of a 0.66× Developer solution containing TSA (3.2 μM). The final product of the enzyme reaction was read using a Spectramax plate reader instrument (Molecular Devices, CA, US) using a fluorescent readout (Ex 360 nm/Em 460 nm). The final enzyme concentrations in the assay buffer for HDAC1 and 3 were 6 and 1.2 nM, respectively. The final Fluor de Lys® substrate concentration in the assay buffer was 16 μM for all HDAC enzymes. IC50 values were determined using the following equation: […]
(§3) Where Efree and Eo are the free and total amount of HDAC enzyme in the reaction mixture, n is the hill coefficient, I is the free inhibitor concentration, and IC50 is the measure of the potency equivalent to the inhibitor concentration that leads to a 50% occupancy of the total enzyme. Each data was generated in duplicate.

The target of a further assay is Recombinant HDAC1 (Homo sapiens (Human), UniProt Q13547). Description: HDAC1 inhibition, Fluor de Lys fluorescent enzyme assay. The format is biochemical. The following applies: 3 hours pre-incubation at room temp; 6 nM enzyme; 16 μM Fluor de Lys substrate; duplicate.
Recombinant HDAC1, sequence (Q13547 whole entry): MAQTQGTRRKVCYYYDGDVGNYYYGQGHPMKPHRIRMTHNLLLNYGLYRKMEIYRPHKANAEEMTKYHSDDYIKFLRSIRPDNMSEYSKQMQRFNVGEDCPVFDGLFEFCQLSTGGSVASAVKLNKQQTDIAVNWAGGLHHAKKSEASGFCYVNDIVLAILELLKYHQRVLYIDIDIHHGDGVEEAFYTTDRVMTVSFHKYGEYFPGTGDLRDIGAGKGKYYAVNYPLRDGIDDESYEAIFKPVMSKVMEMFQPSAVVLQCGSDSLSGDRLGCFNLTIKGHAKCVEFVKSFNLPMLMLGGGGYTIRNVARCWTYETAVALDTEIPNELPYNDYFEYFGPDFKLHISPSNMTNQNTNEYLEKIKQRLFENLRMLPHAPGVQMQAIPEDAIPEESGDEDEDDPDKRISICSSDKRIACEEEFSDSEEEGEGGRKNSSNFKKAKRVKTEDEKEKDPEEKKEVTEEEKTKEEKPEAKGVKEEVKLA
Source text: as §1, §2, §3

What is called IC50 is the concentration needed to halve the response being measured.

HDAC3/NCor2, sequence (O15379 whole entry): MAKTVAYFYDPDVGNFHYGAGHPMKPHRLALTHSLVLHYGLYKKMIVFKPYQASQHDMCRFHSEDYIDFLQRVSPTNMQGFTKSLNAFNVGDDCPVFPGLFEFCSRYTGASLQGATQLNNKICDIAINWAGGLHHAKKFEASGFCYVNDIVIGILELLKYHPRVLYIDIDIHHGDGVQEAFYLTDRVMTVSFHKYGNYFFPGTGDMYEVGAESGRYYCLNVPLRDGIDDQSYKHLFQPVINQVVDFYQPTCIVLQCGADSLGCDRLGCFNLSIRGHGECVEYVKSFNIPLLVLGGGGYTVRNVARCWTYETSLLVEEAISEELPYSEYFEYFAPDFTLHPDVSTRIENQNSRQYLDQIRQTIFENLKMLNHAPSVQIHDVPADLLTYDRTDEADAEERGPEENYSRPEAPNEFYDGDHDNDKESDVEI
HDAC3/NCor2, sequence (Q9Y618 395-489 partner): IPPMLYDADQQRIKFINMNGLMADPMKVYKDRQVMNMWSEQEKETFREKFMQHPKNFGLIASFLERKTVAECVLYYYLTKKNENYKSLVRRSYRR

Take `Cc1cncc(S(=N)(=O)c2ccc(C(=O)Nc3cc(-c4ccc(F)cc4)ccc3N)cc2)c1` (stereo not drawn) [Compound 199, N-[2-amino-5-(4-fluorophenyl)phenyl]-4-[(5-methyl-3-pyridyl)sulfonimidoyl]benzamide]: the IC50 against HDAC3/NCor2 is 500 to 2000 nM; at Recombinant HDAC1 it was below 100 nM.

Regarding `C[S@](=N)(=O)c1ccc(C(=O)Nc2cc(-c3cccs3)ccc2N)cc1` (single isomer, unassigned) [Compound 106], the IC50 is 500 to 2000 nM on HDAC3/NCor2 and below 100 nM at Recombinant HDAC1.

With `N=S(=O)(c1ccc(C(=O)Nc2cc(-c3ccc(F)cc3)ccc2N)cc1)c1ccccc1F` (stereo not drawn) [Compound 197, N-[2-amino-5-(4-fluorophenyl)phenyl]-4-[(2-fluorophenyl)sulfonimidoyl]benzamide], the IC50 at HDAC3/NCor2 was 100 to 500 nM; at Recombinant HDAC1, below 100 nM.

Consider `N=S(=O)(c1ccc(C(=O)Nc2cc(-c3ccc(F)s3)ccc2N)cc1)C1CC1` (racemic) [Compound 127, rac-N-[2-amino-5-(5-fluoro-2-thienyl)phenyl]-4-(cyclopropylsulfonimidoyl)benzamide], for which the IC50 against HDAC3/NCor2 is 500 to 2000 nM; at Recombinant HDAC1, below 100 nM.

On to `CS(=N)(=O)c1cc2sc(C(=O)Nc3cc(-c4ccc(F)cc4)ccc3N)cc2cn1` (stereo not drawn) [Compound 253, N-[2-amino-5-(4-fluorophenyl)phenyl]-6-(methylsulfonimidoyl)thieno[3,2-c]pyridine-2-carboxamide], for which the results for the IC50 on HDAC3/NCor2 and at Recombinant HDAC1 were 500 to 2000 nM and below 100 nM, respectively.

Consider `Cc1csc(-c2ccc(N)c(NC(=O)c3ccc(S(C)(=N)=O)cc3)c2)c1` (stereo not drawn) [Compound 135, N-[2-amino-5-(4-methyl-2-thienyl)phenyl]-4-(methylsulfonimidoyl)benzamide], for which the values for the IC50 against HDAC3/NCor2 and on Recombinant HDAC1 were above 2000 nM and below 100 nM, respectively.

As for `N=S(=O)(c1ccc(C(=O)Nc2cc(-c3ccc(F)cc3)ccc2N)cc1)c1ccc(F)c(F)c1` (stereo not drawn) [Compound 221, N-[2-amino-5-(4-fluorophenyl)phenyl]-4-[(3,4-difluorophenyl)sulfonimidoyl]benzamide], the figures for the IC50 at HDAC3/NCor2 and on Recombinant HDAC1 were 500 to 2000 nM and below 100 nM, respectively.

Turning to `CS(=N)(=O)c1ccc(C(=O)Nc2cc(-c3cncs3)ccc2N)cc1` (stereo not drawn) [Compound 148, N-(2-amino-5-thiazol-5-yl-phenyl)-4-(methylsulfonimidoyl)benzamide], the values for the half-maximal inhibitory concentration (IC50) against HDAC3/NCor2 and on Recombinant HDAC1 were 500 to 2000 nM and below 100 nM, respectively.

For `CS(=N)(=O)c1ccc(C(=O)Nc2cc(-c3ccc(F)cc3F)ccc2N)cc1` (stereo not drawn) [Compound 117, N-[2-amino-5-(2,4-difluorophenyl)phenyl]-4-(methylsulfonimidoyl)benzamide], the IC50 was above 2000 nM against HDAC3/NCor2 and below 100 nM at Recombinant HDAC1.

On to `Cn1cncc1S(=N)(=O)c1ccc(C(=O)Nc2cc(-c3ccc(F)cc3)ccc2N)cc1` (stereo not drawn) [Compound 242, N-[2-amino-5-(4-fluorophenyl)phenyl]-4-[(3-methylimidazol-4-yl)sulfonimidoyl]benzamide], for which the IC50 was 500 to 2000 nM against HDAC3/NCor2 and below 100 nM at Recombinant HDAC1.

With `N=S(=O)(c1ccc(C(=O)Nc2cc(-c3ccc(F)cc3)ccc2N)cc1)C(F)(F)F` (stereo not drawn) [Compound 177, N-[2-amino-5-(4-fluorophenyl)phenyl]-4-(trifluoromethylsulfonimidoyl)benzamide], the figures for the IC50 against HDAC3/NCor2 and on Recombinant HDAC1 were 500 to 2000 nM and below 100 nM, respectively.

`CS(=N)(=O)c1cc2ccc(C(=O)Nc3cc(-c4ccc(F)cc4)ccc3N)cc2o1` (stereo not drawn) [Compound 187, N-[2-amino-5-(4-fluorophenyl)phenyl]-2-(methylsulfonimidoyl)benzofuran-6-carboxamide]: the IC50 against HDAC3/NCor2 is 500 to 2000 nM; at Recombinant HDAC1, below 100 nM.

With `N=S(=O)(c1ccc(C(=O)Nc2cc(-c3ccc(F)cc3)ccc2N)cc1)c1ccc(=O)[nH]c1` (stereo not drawn) [Compound 192, N-[2-amino-5-(4-fluorophenyl)phenyl]-4-[(6-oxo-1H-pyridin-3-yl)sulfonimidoyl]benzamide], the IC50 on HDAC3/NCor2 was 500 to 2000 nM; at Recombinant HDAC1, below 100 nM.

In the case of `CS(=O)(=NC1CC1)c1ccc2sc(C(=O)Nc3cc(-c4ccc(F)cc4)ccc3N)cc2c1` (stereo not drawn) [Compound 211, N-[2-amino-5-(4-fluorophenyl)phenyl]-5-(N-cyclopropyl-S-methyl-sulfonimidoyl)benzothiophene-2-carboxamide], the results for the IC50 against HDAC3/NCor2 and at Recombinant HDAC1 were 500 to 2000 nM and below 100 nM, respectively.

Consider `N=[S@](=O)(c1ccc(C(=O)Nc2cc(-c3ccc(F)cc3)ccc2N)cc1)c1ccccn1` (single isomer, unassigned) [Compound 220], for which the results for the IC50 against HDAC3/NCor2 and at Recombinant HDAC1 were 500 to 2000 nM and below 100 nM, respectively.

In the case of `N#Cc1ccc(S(=N)(=O)c2ccc(C(=O)Nc3cc(-c4ccc(F)cc4)ccc3N)cc2)cn1` (stereo not drawn) [Compound 239, N-[2-amino-5-(4-fluorophenyl)phenyl]-4-[(6-cyano-3-pyridyl)sulfonimidoyl]benzamide], the IC50 was 500 to 2000 nM on HDAC3/NCor2 and below 100 nM on Recombinant HDAC1.

For the molecule `CC(=O)c1ccc(-c2ccc(N)c(NC(=O)c3ccc(S(C)(=N)=O)cc3)c2)s1` (stereo not drawn) [Compound 241, N-[5-(5-acetyl-2-thienyl)-2-amino-phenyl]-4-(methylsulfonimidoyl)benzamide], the IC50 on HDAC3/NCor2 and at Recombinant HDAC1 was above 2000 nM in each case.

Consider `CS(=N)(=O)c1cc2ccc(C(=O)Nc3cc(-c4ccc(F)cc4)ccc3N)cc2s1` (stereo not drawn) [Compound 236, N-[2-amino-5-(4-fluorophenyl)phenyl]-2-(methylsulfonimidoyl)benzothiophene-6-carboxamide], for which the IC50 was 100 to 500 nM at HDAC3/NCor2 and below 100 nM on Recombinant HDAC1.

Regarding `CS(=N)(=O)c1ccc(C(=O)Nc2cc(-c3ccc(F)cc3)ccc2N)cn1` (stereo not drawn) [Compound 129, N-[2-amino-5-(4-fluorophenyl)phenyl]-6-(methylsulfonimidoyl)pyridine-3-carboxamide], the IC50 on HDAC3/NCor2 is 500 to 2000 nM; at Recombinant HDAC1 it was below 100 nM.

Take `COCCS(=N)(=O)c1ccc(C(=O)Nc2cc(-c3cccs3)ccc2N)nc1` (stereo not drawn) [Compound 121, N-[2-amino-5-(2-thienyl)phenyl]-5-(2-methoxyethylsulfonimidoyl)pyridine-2-carboxamide]: the IC50 at HDAC3/NCor2 is 500 to 2000 nM; on Recombinant HDAC1, below 100 nM.

As to `CS(=N)(=O)c1ccc2oc(C(=O)Nc3cc(-c4cccs4)ccc3N)cc2c1` (stereo not drawn) [Compound 143, N-[2-amino-5-(2-thienyl)phenyl]-5-(methylsulfonimidoyl)benzofuran-2-carboxamide], the values for the IC50 on HDAC3/NCor2 and on Recombinant HDAC1 were 500 to 2000 nM and below 100 nM, respectively.

For the molecule `CS(=N)(=O)C1(c2ccc(C(=O)Nc3cc(-c4ccc(F)cc4)ccc3N)cc2)CC1` (stereo not drawn) [Compound 251, N-[2-amino-5-(4-fluorophenyl)phenyl]-4-[1-(methylsulfonimidoyl)cyclopropyl]benzamide], the values for the IC50 against HDAC3/NCor2 and on Recombinant HDAC1 were 500 to 2000 nM and below 100 nM, respectively.

`Cc1ccncc1S(=N)(=O)c1ccc(C(=O)Nc2cc(-c3ccc(F)cc3)ccc2N)cc1` (stereo not drawn) [Compound 198, N-[2-amino-5-(4-fluorophenyl)phenyl]-4-[(4-methyl-3-pyridyl)sulfonimidoyl]benzamide]: the IC50 was 500 to 2000 nM at HDAC3/NCor2 and below 100 nM at Recombinant HDAC1.

Regarding `CCN=S(C)(=O)c1ccc2sc(C(=O)Nc3cc(-c4ccc(F)cc4)ccc3N)cc2c1` (stereo not drawn) [Compound 207, N-[2-amino-5-(4-fluorophenyl)phenyl]-5-(N-ethyl-S-methyl-sulfonimidoyl)benzothiophene-2-carboxamide], the figures for the IC50 against HDAC3/NCor2 and on Recombinant HDAC1 were 500 to 2000 nM and below 100 nM, respectively.
